This note sets out measurements from patent publication US6747023B1 (Daiichi Pharmaceutical Co., Ltd., priority 1998, dated 2004).

Where a name gives a salt, the structure may show the parent alone. Read-outs that look alike come from different tables or passages of the source.

This experiment concerns the target T1, human FXa (Homo sapiens, UniProt P00742).
T1 construct: purchased Cosmobio-ERL HFXa-1011
The experiment can be described thus: Measurement of FXa inhibitory action (IC50). The class given is biochemical. The protocol: Measurement of FXa Inhibitory Action (IC50)
From the below-described equation, an inhibitory ratio % of each sample was determined.
Inhibitory ratio (%)=(1−OD of sample÷OD of control)×100

The mark [1] stands for this setting: 0.05 U/ml human FXa, substrate S2222, absorbance at 405 nm, room temperature, read-out: Concentration (nM) of the sample at which 50% of Fxa activity is inhibited.
The mark [2] stands for this setting: same test as Tables 1-6, read-out: FXa 50% inhibitory concentrations.

T1 sequence (P00742 235-488 limits assumed): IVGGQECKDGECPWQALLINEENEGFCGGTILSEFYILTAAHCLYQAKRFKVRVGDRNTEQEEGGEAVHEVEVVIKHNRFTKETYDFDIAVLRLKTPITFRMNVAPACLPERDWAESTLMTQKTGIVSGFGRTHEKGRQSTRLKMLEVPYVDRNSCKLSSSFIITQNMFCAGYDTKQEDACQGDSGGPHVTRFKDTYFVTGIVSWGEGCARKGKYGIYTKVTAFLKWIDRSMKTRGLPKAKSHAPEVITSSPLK
T1 sequence (P00742 41-179 partner limits assumed): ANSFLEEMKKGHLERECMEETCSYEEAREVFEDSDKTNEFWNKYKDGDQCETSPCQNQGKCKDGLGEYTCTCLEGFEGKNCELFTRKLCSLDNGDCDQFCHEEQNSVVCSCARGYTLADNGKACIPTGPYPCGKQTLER

For the compound `O=C(c1ccc(-c2ccncc2)cc1)N1CCN(S(=O)(=O)c2cc3ccc(Cl)cc3o2)CC1` [Example A-86, 1-[(6-Chlorobenzo[b]furan-2-yl)sulfonyl]-4-[4-(pyridin-4-yl)benzoyl]piperazine], the IC50 under setting [1] is above 10000 nM.

Regarding `Cc1cc(-c2cnc(C(=O)N3CCN(S(=O)(=O)c4cc5cc(Cl)ccc5[nH]4)CC3)s2)cc[n+]1[O-]` [Example A-229, 4-[2-[[4-[(5-Chloroindol-2-yl)sulfonyl]piperazin-1-yl]carbonyl]thiazol-5-yl]-2-methylpyridine N-oxide], the IC50 under setting [1] was found to be 1.6 nM.

In the case of `CN1CCc2nc(C(=O)N3CCN(S(=O)(=O)c4cc5cc(Cl)ccc5[nH]4)CC3CC(=O)N3CCOCC3)sc2C1` (stereo not drawn) [Example B-99, hydrochloride], the IC50 under setting [2] was found to be 1.7 nM. Turning to `CN1CCc2nc(C(=O)N3CCN(S(=O)(=O)c4ccc5cc(Cl)ccc5c4)CC3CC(=O)N3CCOCC3)sc2C1` (stereo not drawn) [Example B-63, 4-[(6-Chloronaphthalen-2-yl)sulfonyl]-1-[(6-methyl-4,5,6,7-tetrahydrothiazolo[5,4-c]pyridin-2-yl)carbonyl]-2-[[(morpholin-4-yl)carbonyl]methyl]piperazine hydrochloride], under setting [2], the IC50 was found to be 12.5 nM. On to `O=C(c1ccc(-c2ccnc(CO)c2)cc1)N1CCN(S(=O)(=O)c2ccc3cc(Cl)ccc3c2)CC1` [Example A-152, 1-[(6-Chloronaphthalen-2-yl)sulfonyl]-4-[4-(2-hydroxymethylpyridin-4-yl)benzoyl]piperazine], for which the IC50 under setting [1] was determined as 38 nM.

With `O=C(c1ncc(-c2cccc[n+]2[O-])cn1)N1CCN(S(=O)(=O)c2cc3cc(Cl)ccc3[nH]2)CC1` [Example A-183, 2-[2-[[4-[(5-Chloroindol-2-yl)sulfonyl]piperazin-1-yl]carbonyl]pyrimidin-5-yl]pyridine N-oxide], the IC50 under setting [1] was 4.7 nM.

Regarding `O=C(c1ccc(-c2ccncc2)cc1)N1CCN(S(=O)(=O)c2cc3cc(Cl)ccc3[nH]2)CC1` [Example A-101, 1-[(5-Chloroindol-2-yl)sulfonyl]-4-[4-(pyridin-4-yl)benzoyl]piperazine], the IC50 under setting [1] came to 9.5 nM.

Turning to `O=C(c1cnc(-c2ccncc2)nc1)N1CCN(S(=O)(=O)c2cc3cc(Cl)ccc3[nH]2)CC1` [Example A-131, 1-[(5-Chloroindol-2-yl)sulfonyl]-4-[[2-(pyridin-4-yl)pyrimidin-5-yl]carbonyl]piperazine], the IC50 under setting [1] was determined as 19 nM.

As to `C[n+]1ccc2nc(C(=O)N3CCN(S(=O)(=O)c4ccc5cc(Cl)ccc5c4)CC3)sc2c1` [Example B-61], under setting [2], the IC50 amounted to 30 nM. In the case of `O=C(c1ccc(-c2ccncc2)cc1)N1CCN(S(=O)(=O)c2cc3cc(Cl)ccc3o2)CC1` [Example A-85, 1-[(5-Chlorobenzo[b]furan-2-yl)sulfonyl]-4-[4-(pyridin-4-yl)benzoyl]piperazine], under setting [1], the IC50 is 1000 nM. Same read-out and setting: then `C#Cc1ccc2[nH]c(S(=O)(=O)N3CCN(C(=O)c4ncc(-c5cc[n+]([O-])cc5)s4)CC3)cc2c1` [Example A-231, 4-[2-[[4-[(5-Ethynylindol-2-yl)sulfonyl]piperazin-1-yl]carbonyl]thiazol-5-yl]pyridine N-oxide], with 2.3 nM; and `O=C(CC1CN(S(=O)(=O)c2cc3cc(Cl)ccc3[nH]2)CCN1C(=O)c1ncc(-c2cc[n+]([O-])cc2)s1)N1CCCC1` (stereo not drawn) [Example A-298, 4-[2-[[4-[(5-Chloroidol-2-yl)sulfonyl]-2-[(pyrrolidin-1-yl)carbonylmethyl]piperazin-1-yl]carbonyl]thiazol-5-yl]pyridine N-oxide], with 0.7 nM.

With `O=C(c1ccc(-c2ccccn2)cc1)N1CCN(S(=O)(=O)c2ccc3cc(Cl)ccc3c2)CC1` [Example A-17, 1-[(6-Chloronaphthalen-2-yl)sulfonyl]-4-[4-(pyridin-2-yl)benzoyl]piperazine hydrochloride], the IC50 under setting [1] amounted to 180 nM. With `Cc1cc(-c2cnc(C(=O)N3CCN(S(=O)(=O)c4cc5cc(Cl)ccc5[nH]4)CC3)nc2)ccn1` [Example A-186, 1-[(5-Chloroindol-2-yl)sulfonyl]-4-[[5-(2-methylpyridin-4-yl)pyrimidin-2-yl]carbonyl]piperazine], under setting [1], the IC50 came out at 1.9 nM. On the same count and under the same terms, then “4-[(6-Chlorobenzo[b]thien-2-yl)sulfonyl]-2-(hydroxymethyl)-1-[5-(pyridin-4-yl)pyrimidin-2-yl]piperazine hydrochloride [Example A-277]”, with 2.7 nM; and `Cn1c(S(=O)(=O)N2CCN(C(=O)c3ccc(-c4ccncc4)cc3)CC2)cc2cc(Cl)ccc21` [Example A-91, 1-[(5-Chloro-1-methylindol-2-yl)sulfonyl]-4-[4-(pyridin-4-yl)benzoyl]piperazine], with 7000 nM. Turning to `O=C(CC1CN(S(=O)(=O)c2cc3ccc(Cl)cc3s2)CCN1C(=O)c1ncc(-c2cccc[n+]2[O-])cn1)NC1CC1` (stereo not drawn) [Example A-293, 2-[2-[[4-[(6-Chlorobenzo[b]thien-2-yl)sulfonyl]-2-[(N-cyclopropylcarbamoyl)methyl]piperazin-1-yl]carbonyl]pyrimidin-5-yl]pyridine N-oxide], the IC50 under setting [1] turned out to be 1.9 nM. On the same count and under the same terms, next, `O=C(c1ccc(-c2cc[n+]([O-])cc2)cc1)N1CCN(S(=O)(=O)c2cc3ccc(Cl)cc3s2)CC1` [Example A-116, 4-[4-[[4-[(6-Chlorobenzo[b]thien-2-yl)sulfonyl]piperazin-1-yl]carbonyl]phenyl]pyridine N-oxide]: 8.6 nM; `O=C(c1ccc(-c2cc[n+]([O-])cc2)cc1)N1CCN(S(=O)(=O)c2cc3ccc(Cl)cc3[nH]2)CC1` [Example A-106, 4-[4-[[4-[(6-Chloroindol-2-yl)sulfonyl]piperazin-1-yl]carbonyl]phenyl]pyridine N-oxide]: 420 nM. Same read-out and setting: next, `O=C(CC1CN(S(=O)(=O)c2cc3cc(Cl)ccc3[nH]2)CCN1C(=O)C1CC=C(c2cc[n+]([O-])cc2)CC1)N1CCCCC1` (stereo not drawn) [Example A-259, 4-[4-[[4-[(5-Chloroindol-2-yl)sulfonyl]-2-[(piperidin-1-yl)carbonylmethyl]piperazin-1-yl]carbonyl]-1-cyclohexen-1-yl]pyridine N-oxide]: 3.5 nM. On the same count and under the same terms, next, `Cc1c(S(=O)(=O)N2CCN(C(=O)c3ccc(-c4ccncc4)cc3)CC2)sc2ccc(Cl)cc12` [Example A-83, 1-[(5-Chloro-3-methylbenzo[b]thien-2-yl)sulfonyl]-4-[4-(piridin-4-yl)benzoyl]piperazine]: 2800 nM.

With `C#Cc1ccc2[nH]c(S(=O)(=O)N3CCN(C(=O)c4ccc(-c5cc[n+]([O-])cc5)cc4)CC3)cc2c1` [Example A-120, 4-[4-[[4-[(5-Ethynylindol-2-yl)sulfonyl]piperazin-1-yl]carbonyl]phenyl]pyridine N-oxide], the IC50 under setting [1] was 14 nM. Same read-out and setting: next, `O=C(c1ccc(-c2ccncc2)cc1)N1CCN(S(=O)(=O)c2cc3ccc(Cl)cc3s2)CC1` [Example A-97, 1-[(6-Chlorobenzo[b]thien-2-yl)sulfonyl]-4-[4-(pyridin-4-yl)benzoyl]piperazine hydrochloride]: 82 nM; `O=C(c1ccc(-c2ccccn2)cc1)N1CCN(S(=O)(=O)c2cc3cc(Cl)ccc3[nH]2)CC1` [Example A-90, 1-[(5-Chloroindol-2-yl)sulfonyl]-4-[4-(pyridin-2-yl)benzoyl]piperazine hydrochloride]: 16 nM; `O=C(c1ccc(-c2ccncc2)cc1)N1CCN(S(=O)(=O)c2cc3cc(Cl)ccc3s2)CC1` [Example A-96, 1-[(5-Chlorobenzo[b]thien-2-yl)sulfonyl]-4-[4-(pyridin-4-yl)benzoyl]piperazine hydrochloride]: 450 nM. Same read-out and setting: next, `O=C(c1ncc(-c2cccc[n+]2[O-])cn1)N1CCN(S(=O)(=O)c2cc3ccc(Cl)cc3s2)CC1` [Example A-185, 2-[2-[[4-[(6-Chlorobenzo[b]thien-2-yl)sulfonyl]piperazin-1-yl]carbonyl]pyrimidin-5-yl]pyridine N-oxide]: 6.3 nM. `O=C(c1ncc(-c2cc[n+]([O-])cc2)s1)N1CCN(S(=O)(=O)c2cc3ccc(Cl)cc3s2)CC1` [Example A-239, 4-[2-[[4-[(6-Chlorobenzo[b]thien-2-yl)sulfonyl]piperazin-1-yl]carbonyl]thiazol-5-yl]pyridine N-oxide]: the IC50 under setting [1] was 3.5 nM. As to `NC(=O)C[C@@H]1CN(S(=O)(=O)c2ccc3cc(Cl)ccc3c2)C[C@H](CC(N)=O)N1C(=O)c1ccc(-c2ccncc2)cc1` [Example A-173, cis-2,6-Bis(carbamoylmethyl)-4-[(6-chloronaphthalen-2-yl)sulfonyl]-1-[4-(pyridin-4-yl)benzoyl]piperazine], the IC50 under setting [1] is 10 nM. Turning to `O=C(c1ccc(-c2ccccn2)cc1)N1CCN(S(=O)(=O)c2cc3ccc(Cl)cc3s2)CC1` [Example A-98, 1-[(6-Chlorobenzo[b]thien-2-yl)sulfonyl]-4-[4-(pyridin-2-yl)benzoyl]piperazine hydrochloride], the IC50 under setting [1] was determined as 125 nM. Still for that read-out and setting: then `O=C(c1ccc(-c2cc[n+]([O-])cc2)cc1)N1CCN(S(=O)(=O)c2cc3cc(Cl)ccc3[nH]2)CC1` [Example A-107, 4-[4-[[4-[(5-Chloroindol-2-yl)sulfonyl]piperazin-1-yl]carbonyl]phenyl]pyridine N-oxide], with 4.7 nM. Same read-out and setting: then `O=C(c1ccc(-c2ccncc2)cc1)N1CCN(S(=O)(=O)c2ccc3cc(Cl)ccc3c2)CC1` [Example A-1, 1-[(6-Chloronaphthalen-2-yl)sulfonyl]-4-[4-(pyridin-4-yl)benzoyl]piperazine hydrochloride], with 123 nM; and `NCc1cc(-c2ccc(C(=O)N3CCN(S(=O)(=O)c4ccc5cc(Cl)ccc5c4)CC3)cc2)ccn1` [Example A-155, 1-[4-(2-Aminomethylpyridin-4-yl)benzoyl]-4-[(6-chloronaphthalen-2-yl)sulfonyl]piperazine hydrochloride], with 28 nM. The same measure, in the same setting: next, `NC(=O)CC1CN(S(=O)(=O)c2cc3cc(Cl)ccc3[nH]2)CCN1C(=O)c1ccc(-c2ccncc2)cc1` (stereo not drawn) [Example A-130, 2-Carbamoylmethyl-4-[(5-chloroindol-2-yl)sulfonyl]-1-[4-(pyridin-4-yl)benzoyl]piperazine]: 3.6 nM.
